{
  "source": "patent US11913884B2",
  "about": "“Visible light-activated dyes and methods of use thereof” (William Marsh Rice University, priority 2019, dated 2024)",
  "key": {"[1]": {"assay": "Singlet oxygen quantum yield determination with DPBF", "type": "physicochemical", "conditions": "DCM, irradiation 615/30 nm, relative to methylene blue", "text": "To determine whether a minimal one atom sulfur-for-oxygen substitution within fluorophores can lead to fluorescence quenching, thio-caged Nile Red (SNile Red, FIG. 1) was synthesized, in which a carbonyl group was replaced with a thiocarbonyl moiety. Treatment of Nile Red with Lawesson's reagent in refluxing benzene produced the desired SNile Red in a yield of 40%. […] Irradiation of SNile Red with red light (615 nm, 0.4 μW cm-2) led to the regeneration of fluorescent Nile Red in a high yield (FIG. 2A). […] The A556/A652 value, representing the ratio of the absorbance maxima of Nile Red and SNile Red, increased from 0.25 to 30 after desulfuration reaction (FIG. 2B). Upon irradiation with red light, the fluorescence intensity of the desulfurated material at 626 nm increased 280-fold, accompanied by a change in fluorescence from dark to red (FIG. 2C). To evaluate the proper light source for SNile Red photoactivation, SNile Red was irradiated with either 470 nm, 615 nm, or 850 nm light for different times and fluorescence intensities at 626 nm were recorded. […] To further characterize the photoactivated product of SNile Red, ^1H NMR and ESI-MS spectral changes were measured in the process of photoactivation (FIG. 2A). […]\nSinglet oxygen quantum yields were calculated according to the literature (Bonacin et al., 2009, Adarsh et al., 2010, and Li et al., 2013). […]"}, "[2]": {"assay": "Fluorescence quantum yield determination", "type": "physicochemical", "conditions": "DMSO; reference rhodamine B in ethanol or quinine sulfate in 0.5 M H2SO4", "description": "The ^1H NMR spectroscopic measurements were carried out using a Bruker-600 NMR at 600 MHz with tetramethysilane (TMS) as internal reference. Electrospray ionization (ESI) mass spectra were performed on a Bruker MicroToF ESI LC-MS System in positive-ion mode. The steady-state absorption spectra were obtained with a ThermoFisher Evolution 220 UV-Vis spectrophotometer in 1 cm path length quartz cells. Fluorescence spectra were recorded using spectrophotometer (SPEX FluoroLog-3). Quantum yield in DMSO was measured relative to the fluorescence of Rhodamine B (Φ=0.65) in ethanol or quinine sulfate (Φ=0.55) in 0.5 M·L^−1 H2SO4. FT-IR spectrum was taken on a PerkinElmer Spectrum 100 FT-IR Spectrometers. Confocal fluorescent images of living cells were performed using Nikon A1R-si Laser Scanning Confocal Microscope (Japan), equipped with lasers of 405/488/561/638 nm. STORM images were performed on a NSTORM (Nikon, Japan), featuring a CFI Apo TIRF 100× oil objective (NA 1.49) on an inverted Nikon Ti Eclipse microscope with a quad cube filter (Chroma, zt405/488/561/640 m-TRF), piezo stage, and Perfect Focus System (Nikon) for Z-stability. Light source are hand-held UV lamp, BlueView Transilluminator (470 nm centred, Vernier), Prior Lumen200 with 615/30 filter and 850 LED (Mouser Electronics).\nQuantum yields were measured with Rhodamine B as reference (Φ=0.65) or quinine sulfate (Φ=0.55) in 0.5 M H2SO4. Fluorescence measurements were performed in 1 cm quartz cells with 5 μM samples in DMSO on spectrophotometer (SPEX FluoroLog-3) (slits 5×5). The fluorescence quantum yield, Φ (sample), were calculated according to equation as following:\n[formula] Φ: quantum yield; I: integrated emission intensity; OD: optical density at the excitation wavelength; d: refractive index of solvents, dDMSO=1.478; dethanol=1.36; dwater=1.33."}},
  "data": [
    {"smiles": "CCN(CC)c1ccc2nc3c4ccccc4c(=S)cc-3oc2c1", "note": "[SNile Red]", "values": [
      {"measurement": "singlet oxygen quantum yield", "setting": "[1]", "value": 0.36},
      {"measurement": "ø (fluorescence quantum yield)", "setting": "[2]", "value": "<0.001"}
    ]}
  ]
}
